Laboratory results from PMC11681892, “Targeting p62 by sulforaphane promotes autolysosomal degradation of SLC7A11, inducing ferroptosis for osteosarcoma treatment” (Redox Biology, 2024).

Key:
[1] = molecular target: T1, p62 (Homo sapiens, UniProt Q13501); assay: cellular thermal shift assay (CETSA), western blot; type: cell-based; settings: endogenous p62 in osteosarcoma cells, SFN 20 μM, 2 h, 46-60 °C gradient
T1 construct: gene SQSTM1; p62-mCherry plasmid expressed in HEK293T, RIPA lysate (MST); endogenous p62 in human osteosarcoma cells (CETSA); p62 mutants transfected into 143B cells (DARTS)
T1 sequence (Q13501 2-440): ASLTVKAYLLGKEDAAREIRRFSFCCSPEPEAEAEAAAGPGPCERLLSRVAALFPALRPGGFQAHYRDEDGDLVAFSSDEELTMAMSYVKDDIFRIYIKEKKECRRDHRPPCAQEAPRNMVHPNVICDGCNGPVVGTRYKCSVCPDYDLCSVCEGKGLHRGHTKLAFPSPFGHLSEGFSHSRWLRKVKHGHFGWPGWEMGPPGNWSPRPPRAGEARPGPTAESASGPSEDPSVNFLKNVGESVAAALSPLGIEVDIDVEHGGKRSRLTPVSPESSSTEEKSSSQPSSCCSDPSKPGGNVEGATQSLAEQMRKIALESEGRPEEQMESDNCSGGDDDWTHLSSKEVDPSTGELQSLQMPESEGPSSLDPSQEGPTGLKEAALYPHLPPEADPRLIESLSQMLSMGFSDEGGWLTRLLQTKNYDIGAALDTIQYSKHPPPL

[2] = molecular target: T1, p62; assay: microscale thermophoresis (Monolith NT.[…]); type: binding

Kd [2]: 15.5 ± 3.93 µM
SMILES: C[S@@+]([O-])CCCCN=C=S [Sulforaphane]
thermal stability (CETSA) [1]: SFN significantly enhanced the thermal stability of p62 in OS cells (Fig. 6C)
